# According to patent publication US20210219550A1, “PEST CONTROL COMPOSITIONS AND USES THEREOF” (Flagship Pioneering Innovations VI, LLC, priority 2018, published 2021):
# Columns and labels:
# [1] = system: Arabidopsis thaliana seedlings; experiment: Treatment of Arabidopsis thaliana seedlings with doxorubicin-loaded PMPs (cytotoxicity: leaf vigor, leaf color, root length); type: in vivo; details: 7-day old seedlings, 24 hours treatment, 3 further days; doses tested 25, 50, 100 μM
# Experimental: Wild type Arabidopsis thaliana Col-0 seeds were obtained from the ABRC, surface sterilized with 50% bleach, stratified for 1-3 d at 4° C., and germinated on half-strength (0.5×) Murashige and Skoog (MS) medium supplemented with 0.5% sucrose, 2.5 mM MES, pH 5.6, containing 0.8% agar, with a photoperiod of 16 h light 23° C./8 h dark 21° C.
# To test whether PMPs can deliver a small molecule cargo in planta, 7-day old Arabidopsis thaliana seedlings were transferred to 0.5× liquid MS medium in a 24 well plate (1 seedling per well), and treated with free DOX or DOX-loaded PMPs with an encapsulated DOX dose of 0 (negative control), 25 μM, 50 μM and 100 μM. The plate was covered with aluminum foil and incubated for 24 hours. DOX-containing medium was removed, the seedlings were washed two times with ½X MS medium, and fresh medium was added. Seedlings were incubated for an additional 3 days under a normal photoperiod (16 h light 23° C./8 h dark 21° C.). Next, seedlings were removed from the plate and towel-dried for imaging and cytotoxicity was assessed by analyzing leaf vigor, leaf color and root length. Cytotoxicity is defined by shortening of the roots, loss of leaf vigor, and leaf discoloration (yellow instead of green) when compared to an untreated seedling control.
# [2] = system: E. coli; experiment: Treatment of bacteria and yeast with DOX-loaded grapefruit PMPs (kinetic OD600, relative OD); details: effective DOX 5-100 μM
# Experimental: (§1) Bacteria and yeast strains were maintained as indicated by the supplier: E. coli(ATCC, #25922) was grown on Trypticase Soy Agar/broth at 37° C., Pseudomonas aeruginosa (ATCC) was grown on Tryptic soy Agar/broth with […] rifampicin at 37° C., Pseudomonas syringae pv. tomato str. DC3000 bacteria (ATCC, #BAA-871) was grown on King's Medium B agar with […] rifampicin at 30° C., and Saccharomyces cerevisiae (ATCC, #9763) was grown on yeast extract peptone dextrose broth (YPD) and maintained at 30° C. Prior to treatment, fresh one day cultures were grown overnight, the OD (600 nm) was adjusted to 0.1 OD with medium prior to use, and bacteria/yeast were transferred to a 96 well plate for treatment (duplicate samples, 100 μl/well). […] Plates were covered with aluminum foil, and incubated at 37° C. (E. coli, P. aeruginosa), or 30° C. (S. cerevisiae, P. syringae) and agitated at 220 rpm.
# (§2) A kinetic Absorbance measurement at 600 nm was performed on a SpectraMax® spectrophotometer to monitor the OD of the cultures at t=0 h, t=1 h, t=2 h, t=3 h, t=4.5 h, t=16 h (E. coli, P. aeruginosa) or t=0.5 h, t=1.5 h, t=2.5 h, t=3.5 h, t=4 h, t=16 h (P. syringae, S. cerevisiae).
# (§3) To compare the cytotoxic effect of PMP-DOX treatment on different bacterial and yeast strains, within each treatment group the relative OD was determined as compared to the untreated control (set to 100%).
# [3] = system: Saccharomyces cerevisiae; experiment: as above; details: S. cerevisiae, effective DOX 5-100 μM
# Experimental: as §1, §2, §3
# [4] = system: Pseudomonas aeruginosa; experiment: as above; details: P. aeruginosa, effective DOX 5-100 μM
# Experimental: as §1, §2, §3
# [5] = system: Pseudomonas syringae pv. tomato str. DC3000; experiment: as above; details: P. syringae, effective DOX 5-100 μM
# Experimental: as §1, §2, §3
compound,measurement,setting,value
"COc1cccc2c1C(=O)c1c(O)c3c(c(O)c1C2=O)C[C@@](O)(C(=O)CO)C[C@@H]3O[C@H]1C[C@H](N)[C@H](O)[C@H](C)O1 [free doxorubicin, doxorubicin]",DOX dose at which cytotoxicity was shown,[1],100 µM
same,"cytotoxic effect (relative OD vs untreated control), in words",[2],cytotoxicity is induced earlier than with PMP-DOX delivery
same,"cytotoxic effect (relative OD vs untreated control), in words",[3],cytotoxicity is induced earlier than with PMP-DOX delivery
same,"cytotoxic effect (relative OD vs untreated control), in words",[4],cytotoxicity is induced earlier than with PMP-DOX delivery
same,"cytotoxic effect (relative OD vs untreated control), in words",[5],cytotoxicity is induced earlier than with PMP-DOX delivery
